Experimental findings from patent US20180064659A1, “AGENTS USEFUL FOR TREATING OBESITY, DIABETES AND RELATED DISORDERS” (The Regents of the University of California, priority 2015, published 2018) are described below.

One assay has as its system phospho-Shc. Description: Western blot of phospho-Shc. It counts as cell-based. The method, then: Assays to identify compounds useful for preventing, reducing, delaying or inhibiting symptoms of impaired insulin sensitivity, glucose intolerance or obesity can be performed in vitro. Candidate agents can be contacted with a population of test cells in the presence of insulin (e.g., 1 nM, 5 nM, 10 nM, 100 nM or more). An agent that prevents, reduces, delays or inhibits one or more symptoms of impaired insulin sensitivity, glucose intolerance or obesity increases the ratio of levels of phospho-Akt-1 over phospho-Erk relative to a control ratio. The increase in ratio of levels of phospho-Akt-1 over phospho-Erk can be determined in comparison to a control population of cells that have not been contacted with insulin or have been contacted with a low concentration of insulin (e.g., less than 0.1 nM) or a population of cells contacted with insulin but not with the compound under test. Ratio of levels of phospho-Akt-1 over phospho-Erk can be determined using a Western blot among other methods. Inhibition of Shc activity can be quantitatively measured by assaying the reduction of stimulatory Shc phosphorylation, using a phospho-Shc specific antibody. Inhibition of Shc expression can be measured using a Western blot. […]

The next assay deals with FL83B cells. Description: High-throughput in-cell western blot (ICWB) screen for insulin sensitizers, P-Akt over P-ERK. Type of assay: cell-based, mouse. The protocol:
Drugs were screened by in-cell western blot (ICWB) for their ability to stimulate phospho-Akt activation in the presence of trace or 10 nM insulin (FIG. 4A). Cells in wells were treated with drugs, and the activity (phosphorylation) of Akt was determined by a phospho-Akt specific antibody. In FIG. 4A, low insulin was given and drugs a, b, c, stimulated Akt activation. In FIG. 4B, 10 nM insulin was given and a, b, and c stimulated signaling over background, and d and […] inhibited. […] Drugs were primarily screened for their ability to promote insulin-dependent stimulation of (phospho)Akt, then secondarily screened for lack of activity to stimulate (phospho) Erk, or a high Akt/Erk ratio. Such drugs are expected to cause insulin sensitivity, resistance to obesity, and longevity. Some drugs having these desired characteristics are Shc inhibitors.
Primary ICWB was performed as follows: FL83B cells were seeded on 384 well plates, 10,000 cells per well in F-12 media supplemented with 10% FBS and 25 mM glucose; 48 hours later the media was replaced with F-12, 25 mM glucose without FBS for sixteen hours; cells were supplemented with assigned drug at desired concentration for 1 hour in duplicate and then, the cells were stimulated with desired concentration of insulin for ten minutes for Akt activation and fifteen minutes for ERK activation measurements. After that time the media was removed and replaced with fixing solution of 5% Formaldehyde in PBS, pH=7.4, 30 minutes later, the fixing solution was replaced with the permeabilization buffer, 0.1% triton X100 in PBS for 40 minutes. […] After the incubation with the secondary antibodies for one hour at room temperature, the wells were washed again two times with the 0.1% tween-20 in PBS and scanned on the Li-Cor Odyssey infrared scanner; images were analyzed with the Li-Cor Odyssey software. […] Phospho-Akt, Phospho-ERK signals than were normalized by tubulin signals in each well and the densitometric results were analyzed to identify drugs which improved metabolic insulin sensitivity without inducing the mitogenic ERK activation. […]

On to `COc1cc2ncnc(Nc3ccc(Oc4ccccc4)cc3)c2cc1OC` [SrcI-1], for which the phospho-Shc activation result in the assay with phospho-Shc is recorded as “inhibited phospho-Shc activation in dose-dependent manner”. Moreover, the “Score rank in screening assay” value in the assay with FL83B cells (1689 molecules screened) was “scored in the top 35 out of 1689 molecules”.

With `COC1=C(OC)C(=O)C(CCCCCCCCCCO)=C(C)C1=O` [idebenone], in the assay on phospho-Shc, the phospho-Shc activation result is reported as “decreased phospho-Shc in a dose-dependent manner”. Further, in the assay on FL83B cells (ICWB primary screen), the “P-Akt/P-Erk ratio in primary screen” value is “increased P-Akt/P-Erk ratio”.
